In brackets after ≈: the same amount, converted by molar mass.
How the values were obtained:
Format in all cases: functional
[1] = test system: Bacillus cereus; assay: Antibacterial activity against Bacillus cereus DSM318 after 24 hrs at 37 degC by serial dilution method; details: DSM318, 24 h
[2] = test system: Staphylococcus aureus; assay: Antibacterial activity against Staphylococcus aureus ATCC 13709 after 24 hrs at 37 degC by serial dilution method; details: ATCC 13709, 24 h
[3] = test system: Agrobacterium tumefaciens; assay: Antibacterial activity against Agrobacterium tumefaciens ATCC 23308 after 24 hrs at 37 degC by serial dilution method; details: ATCC 23308, 24 h
[4] = test system: Candida albicans; assay: Antifungal activity against Candida albicans ATCC 10231 after 24 hrs at 37 degC by serial dilution method; details: ATCC 10231, 24 h
[5] = test system: Candida tropicalis; assay: Antifungal activity against Candida tropicalis DSM1346 after 24 hrs at 37 degC by serial dilution method
[6] = test system: Rhodotorula glutinis; assay: Antifungal activity against Rhodotorula glutinis DSM70398 after 24 hrs at 27 degC by serial dilution method
[7] = test system: Aspergillus niger; assay: Inhibition of spore germination of Aspergillus niger DSM737 after 24 hrs at 27 degC by serial dilution method; details: DSM737, 24 h
[8] = test system: Aspergillus ochraceus; assay: Inhibition of spore germination of Aspergillus ochraceus DSM63304 after 24 hrs at 27 degC by serial dilution method

## CC#CC#CC#C[C@@H]1O[C@@H]1CO (relative stereo)
[1]
  MIC: > 100 µg/mL
[2]
  MIC: > 100 µg/mL
[3]
  MIC: > 100 µg/mL
[4]
  MIC: 50 µg/mL (≈ 312 µM)
[5]
  MIC: 50 µg/mL (≈ 312 µM)
[6]
  MIC: 10 µg/mL (≈ 62.4 µM)
[7]
  MIC: 1 µg/mL (≈ 6.24 µM)
[8]
  MIC: 1 µg/mL (≈ 6.24 µM)

From ChEMBL document CHEMBL1149050, “An antifungal polyacetylenic compound from the culture filtrate of the fungus Trametes pubescens” (1994)
